Measured values published in US20230358677A1, “Reversible Excited-State Photoacids and Photobases as Dynamic Fluorescence Sensors of Protonic Species” (California Institute of Technology, priority 2022, published 2023).
Read-outs that look alike come from different tables or passages of the source.

What was measured:
[1] = Acid-base titrations of NS—NH2 in the presence of proton-accepting quenchers (modified Stern-Volmer, Equation 7); conditions: for pKa: pKa,BH+ (Equation 7)
Excerpt: Assuming that photoluminescence quenching occurs by ESPT from NS—NH2* to OH^−(aq), the data support that when aOH− is small (i.e. at pH less than about 12), ESPT can be quite slow compared to the excited-state lifetime of NS—NH2*, due to mass action (FIG. 2B). The non-unity quantum yield for ESPT in weakly alkaline aqueous solutions afforded us an opportunity to evaluate a series of aqueous proton-accepting quenchers (glycine (Gly(aq)), proline (Pro(aq)), and trifluoroethanol (TFE(aq))) for their ability to undergo ESPT with NS—NH2*. In order to clearly observe ESPT to a species other than OH^−(aq), added proton-accepting quenchers had to be more basic (ΔG^o<0), or slightly more acidic (ΔG^o>0), than NS—NH2*, and less basic than OH^−(aq). […] As pH values approach and pass the pKa of the proton-accepting quencher, the rate of ESPT slows from a decrease in the concentration of proton-accepting quencher due to its protonation. This is supported by observations from analogous experiments performed using different concentrations of quencher. Best fits of measured photoluminescence spectroscopy data to a modified Stern-Volmer equation for a two-quencher system, including both OH^−(aq) and proton-accepting quencher, provided bimolecular rate constants for deprotonation of the photoacid by each quencher,
where KSV,OH−=K*^−1b and KSV,quencher=k+q,quencherτo,PAH* are the dynamic quenching constants for excited-state proton transfer to OH^−(aq) and proton-accepting quencher, respectively, k+q,quencher is the bimolecular rate constant (M^−1 s^−1) for ESPT quenching by the proton-accepting quencher, and the sum of the activities of B and BH^+ is approximated as the total concentration of the proton-accepting quencher. While the pKa of the proton-accepting quencher is an adjustable parameter during best fitting, extracted pKa values are close to pKa values obtained from the acid-base titration curves of the proton-accepting quenchers. Changing the proton-accepting quencher to one with a smaller pKa value results in a slower non-diffusion-limited rate constant for ESPT with NS—NH2*. The observation of ESPT directly from NS—NH2* to each of two different amino acids, Gly and Pro, is notable, and may have important implications for biological systems where direct protonation of proteins can induce cellular responses.
Table 2 lists driving-force-dependent rate constants for direct excited-state proton transfer from NS—NH2* to various proton-accepting quenchers.
Several embodiments use the steady-state ultraviolet-visible electronic absorption and photoluminescence spectroscopy for characterization. Equal amounts of aromatic amine photoacids are portioned into five separate 100 mL volumetric flasks. For the non-proton-accepting quencher experiments, the five flasks are filled to the volumetric marker with aqueous solutions of 1 M HCl, 1 M KOH, 2 M KOH, 3 M KOH, and 4 M KOH. The aqueous 1 M KOH solution is titrated with the aqueous 1 M HCl solution to reach the desired pH values from 14 to 6, and the H^+ activities are measured using a pH meter (pH/Ion 510). […] Electronic absorption spectra and photoluminescence spectra are acquired using absorbance and fluorescence spectrometer(s), using a square-bottom quartz cuvette (1 cm path length) at room temperature. Electronic absorption spectra are baselined on a spectrum of deionized water and were corrected for scattering of light. Photoluminescence spectra are recorded by exciting with 310 nm light, slit widths for the excitation and emission monochromators were set to 5 nm, and the PMT detector voltage is set to 600 V. Photoluminescence spectra are corrected for changes in solution refractive index, inner filter effects and the wavelength-dependent correction factor of the fluorimeter.

[2] = cited from earlier work
[3] = proton acceptor, aqueous; cited from earlier work
[4] = physchem
[5] = quenching of NS—NH2*, 1 M total quencher

pKa ([1]; value after the slash): 10.8 | pKa ([1]; value before the slash): 10.7 | pKa [4]: 10.8
SMILES: O=C(O)[C@@H]1CCCN1 [Proline]
bimolecular rate constant, deprotonation of NS—NH2* by the quencher ([1]; 1 M total quencher): (1.70±0.05)×10^8 M^−1 s^−1 | k+q,corr ([1]; corrected rate constant, ESPT from NS—NH2* to the proton acceptor): 7.11 ± 0.21 10^8 M^−1 s^−1 | k+q ([1]; direct excited-state proton transfer from NS—NH2* to the proton acceptor): 1.70 ± 0.05 10^8 M^−1 s^−1 | KSV,quencher (Equation 7) [1, 5]: 0.80 ± 0.02 M⁻¹ | KSV,quencher (traditional linearized Stern-Volmer) [1, 5]: 0.79 ± 0.01 M⁻¹ | pKa, literature value [2]: 10.5 | Diffusion Coefficient [3]: 8.79 10^−6 cm^2/s
